Test results reported in the supplement of paper PMC10307832.

Assays:
Assay in all cases: relative viability (nuclei count vs DMSO), 5 days (fraction); higher = more cells survive
Midostaurin + Luminespib = compound: CO[C@@H]1[C@H](N(C)C(=O)c2ccccc2)C[C@H]2O[C@]1(C)n1c3ccccc3c3c4c(c5c6ccccc6n2c5c31)C(=O)NC4 [Midostaurin] + CCNC(=O)c1noc(-c2cc(C(C)C)c(O)cc2O)c1-c1ccc(CN2CCOCC2)cc1 [Luminespib] (partner 0.01 µM)
How it was run: (§1)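 Nuclei were stained with Hoechst during a one-step fixation (final 0.05% Triton X-100, 1% formaldehyde, 1 ug/ml Hoechst) carried out 5 days after dosing, then counted on 4× images. The cells, lung cancer lines in 1536-well plates, had been dosed by pin tool the day after seeding with one drug alone or a fixed anchor-drug dose plus five library-drug doses (not always all listed) in √10 steps. Relative viability is the nuclei count in treated wells divided by that in vehicle wells, and each value is the median of duplicate plates.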

[1] = compound: COc1cc(-c2nn([C@H]3CC[C@H](N4CCN(C(C)=O)CC4)CC3)c3ncnc(N)c23)ccc1NC(=O)c1cc2ccccc2n1C + COc1cccc2cc(-c3nc([C@H]4CC[C@H](C(=O)O)CC4)n4ncnc(N)c34)[nH]c12 [OSI-027] (partner 0.5 µM)
How it was run: as §1

[2] = compound: COc1cc(-c2nn([C@H]3CC[C@H](N4CCN(C(C)=O)CC4)CC3)c3ncnc(N)c23)ccc1NC(=O)c1cc2ccccc2n1C + Cc1cc(Nc2cc(N3CCN(C)CC3)nc(Sc3ccc(NC(=O)C4CC4)cc3)n2)n[nH]1 [Tozasertib] (partner 0.1 µM)
How it was run: as §1

[3] = compound: COc1cc(-c2nn([C@H]3CC[C@H](N4CCN(C(C)=O)CC4)CC3)c3ncnc(N)c23)ccc1NC(=O)c1cc2ccccc2n1C + Cc1nc(NC(=O)N2CCC[C@H]2C(N)=O)sc1-c1ccnc(C(C)(C)C(F)(F)F)c1 [Alpelisib] (partner 2 µM)
How it was run: as §1

[4] = compound: COc1cc(-c2nn([C@H]3CC[C@H](N4CCN(C(C)=O)CC4)CC3)c3ncnc(N)c23)ccc1NC(=O)c1cc2ccccc2n1C + O=C(c1cc(Cc2n[nH]c(=O)c3ccccc23)ccc1F)N1CCN(C(=O)C2CC2)CC1 [Olaparib] (partner 8 µM)
How it was run: as §1

Row | Cell Line | relative viability (Midostaurin + Luminespib; first compound 0.01 µM) | relative viability (Midostaurin + Luminespib; first compound 0.03162 µM) | relative viability (Midostaurin + Luminespib; first compound 0.1 µM) | relative viability (Midostaurin + Luminespib; first compound 0.3162 µM) | relative viability ([1]; first compound 0.0128 µM) | relative viability ([1]; first compound 0.04048 µM) | relative viability ([1]; first compound 0.128 µM) | relative viability ([1]; first compound 1.28 µM) | relative viability ([2]; first compound 0.0128 µM) | relative viability ([2]; first compound 0.04048 µM) | relative viability ([2]; first compound 0.128 µM) | relative viability ([2]; first compound 1.28 µM) | relative viability ([3]; first compound 0.0128 µM) | relative viability ([3]; first compound 0.04048 µM) | relative viability ([3]; first compound 0.128 µM) | relative viability ([3]; first compound 1.28 µM) | relative viability ([4]; first compound 0.0128 µM) | relative viability ([4]; first compound 0.04048 µM) | relative viability ([4]; first compound 0.128 µM) | relative viability ([4]; first compound 1.28 µM)
1 | NCI-H2009 | 1.05 | 0.954 | 0.936 | 1 | 0.618 | 0.463 | 0.635 | 0.54 | 0.743 | 0.734 | 0.681 | 0.606 | 1.15 | 1.2 | 1.16 | 1.08 | 0.706 | 0.714 | 0.674 | 0.69
2 | NCI-H2023 | 0.627 | 0.753 | 0.589 | 0.333 | 0.409 | 0.4 | 0.423 | 0.28 | 0.381 | 0.309 | 0.179 | 0.199 | 0.607 | 0.651 | 0.546 | 0.521 | 0.519 | 0.505 | 0.414 | 0.449
3 | NCI-H2085 | 0.42 | 0.464 | 0.371 | 0.42 | 0.716 | 0.593 | 0.774 | 0.519 | 0.827 | 0.867 | 0.728 | 0.372 | 1.08 | 0.949 | 0.975 | 0.658 | 0.817 | 0.891 | 0.804 | 0.653
4 | NCI-H2087 | 0.258 | 0.18 | 0.154 | 0.169 | 0.692 | – | 0.611 | 0.648 | 0.221 | – | 0.216 | 0.194 | 1.29 | 0.781 | 1.27 | 1.2 | 0.644 | – | 0.616 | 0.722
5 | NCI-H2126 | 0.889 | 0.679 | 0.847 | 0.896 | 0.686 | 0.661 | 0.646 | 0.547 | 0.833 | 0.946 | 0.773 | 0.638 | 0.757 | 0.858 | 0.746 | 0.536 | 0.952 | 0.961 | 0.656 | 0.74
6 | NCI-H2170 | 0.628 | 0.509 | 0.633 | 0.767 | 0.81 | 0.468 | 0.701 | 0.687 | 0.805 | 0.738 | 0.688 | 0.639 | 0.891 | 0.789 | 0.82 | 0.686 | 0.72 | 0.615 | 0.595 | 0.541
7 | NCI-H2228 | 0.155 | 0.163 | 0.164 | 0.134 | 0.706 | 0.637 | 0.573 | 0.45 | 0.273 | 0.242 | 0.22 | 0.157 | 0.774 | 0.793 | 0.692 | 0.45 | 0.711 | 0.948 | 0.567 | 0.459
8 | NCI-H2347 | 0.422 | 0.727 | 0.366 | 0.325 | 0.406 | – | 0.434 | 0.418 | 0.475 | – | 0.486 | 0.42 | 1.05 | 0.948 | 0.924 | 1.03 | 0.561 | 0.597 | 0.56 | 0.505
